Source: the supplement of paper PMC11061612

Experiments:
Test in all cases: Bliss excess, mean over the matrix (fraction); higher = more synergy
[1] = tested on: PFSK-1 (Other Solid Carcinomas)
In short: (§1)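 After 24 hours at 37°C and 5% CO2 in 1536-well plates, cells in DMEM/F12 or RPMI plus 10% FBS received two-drug dose matrices for 72 hours. Viability came from CellTiter-Glo 2.0 luminescence and was scaled as inhibition, anchored at 0 by vehicle wells and at 1 by blank wells. Combination Emax is taken as the second-highest inhibition in the matrix, and Bliss excess as the observed combination effect less EA + EB − EA·EB, with EA and EB the single-agent effects.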

[2] = tested on: EW-18 (Ewing's Sarcoma)
In short: as §1

[3] = tested on: EBC-1 (Squamous Cell Lung Carcinoma)
In short: as §1

[4] = tested on: BT-20 (Breast Carcinoma)
In short: as §1

[5] = tested on: KP-2 (Pancreatic Carcinoma)
In short: as §1

[6] = tested on: KU-19-19 (Bladder Carcinoma)
In short: as §1

[7] = tested on: OCUM-1 (Gastric Carcinoma)
In short: as §1

[8] = tested on: TGBC11TKB (Gastric Carcinoma)
In short: as §1

[9] = tested on: LOU-NH91 (Squamous Cell Lung Carcinoma)
In short: as §1

[10] = tested on: OVISE (Ovarian Carcinoma)
In short: as §1

[11] = tested on: SCC-3 (B-Cell Non-Hodgkin's Lymphoma)
In short: as §1

[12] = tested on: GOTO (Neuroblastoma)
In short: as §1

[13] = tested on: A704 (Kidney Carcinoma)
In short: as §1

[14] = tested on: NCI-H2347 (Lung Adenocarcinoma)
In short: as §1

[15] = tested on: RPMI-7951 (Melanoma)
In short: as §1

[16] = tested on: DG-75 (Burkitt's Lymphoma)
In short: as §1

[17] = tested on: NCI-H322M (Lung Adenocarcinoma)
In short: as §1

[18] = tested on: SCC-9 (Oral Cavity Carcinoma)
In short: as §1

[19] = tested on: SNU-C1 (Colorectal Carcinoma)
In short: as §1

[20] = tested on: IMR-5 (Neuroblastoma)
In short: as §1

| Structure (SMILES) | Bliss excess [1] | Bliss excess [2] | Bliss excess [3] | Bliss excess [4] | Bliss excess [5] | Bliss excess [6] | Bliss excess [7] | Bliss excess [8] | Bliss excess [9] | Bliss excess [10] | Bliss excess [11] | Bliss excess [12] | Bliss excess [13] | Bliss excess [14] | Bliss excess [15] | Bliss excess [16] | Bliss excess [17] | Bliss excess [18] | Bliss excess [19] | Bliss excess [20] |
| --- | --- | --- | --- | --- | --- | --- | --- | --- | --- | --- | --- | --- | --- | --- | --- | --- | --- | --- | --- | --- |
| C[C@@H](c1ccc2nccn2c1)n1nnc2ncc(-c3cnn(C)c3)nc21 [Savolitinib] + CC1(C)CCC(CN2CCN(c3ccc(C(=O)NS(=O)(=O)c4ccc(NCC5CCOCC5)c([N+](=O)[O-])c4)c(Oc4cnc5[nH]ccc5c4)c3)CC2)=C(c2ccc(Cl)cc2)C1 [Venetoclax] (first compound max 1 µM, 7x7, partner max 1 µM) | -0.0025 | -0.067 | -0.0642 | -0.0427 | -0.0518 | -0.0468 | -0.0368 | -0.0367 | -0.0801 | -0.0481 | -0.0166 | -0.0228 | -0.0516 | -0.0848 | -0.0432 | -0.0021 | -0.0536 | -0.0328 | -0.0363 | -0.0158 |
| C[C@@H](c1ccc2nccn2c1)n1nnc2ncc(-c3cnn(C)c3)nc21 [Savolitinib] + Cc1c2c(nn1C)CSCc1cc(n(C)n1)CSc1cc(c3ccccc3c1)OCCCc1c(C(=O)O)n(C)c3c-2c(Cl)ccc13 [AZD5991] (first compound max 1 µM, 7x7, partner max 1 µM) | 0.02 | -0.0113 | 0.0076 | -0.0135 | -0.0468 | -0.0494 | -0.0085 | -0.0197 | -0.0328 | -0.0291 | 0.0239 | -0.0227 | -0.0508 | -0.0559 | -0.0199 | -0.0204 | -0.0638 | -0.0281 | -0.0558 | 0.0026 |
| Cn1cnc2c(F)c(Nc3ccc(Br)cc3Cl)c(C(=O)NOCCO)cc21 [Selumetinib] + C=CCn1c(=O)c2cnc(Nc3ccc(N4CCN(C)CC4)cc3)nc2n1-c1cccc(C(C)(C)O)n1 [AZD1775] (first compound max 10 µM, partner max 1 µM) | -0.0549 | -0.147 | 0.0508 | -0.0224 | 0.0088 | -0.0308 | -0.0137 | -0.0163 | -0.0144 | -0.0436 | 0.0092 | -0.0119 | -0.0211 | -0.0164 | -0.0482 | -0.0637 | -0.0097 | 0.0789 | 0.016 | 0.0121 |
| Cn1cnc2c(F)c(Nc3ccc(Br)cc3Cl)c(C(=O)NOCCO)cc21 [Selumetinib] + CC(C)n1c(=O)n(C)c2cnc3cc(F)c(-c4ccc(OCCCN5CCCCC5)nc4)cc3c21 [AZD1390] (first compound max 10 µM, 7x7, partner max 0.3 µM) | -0.0492 | -0.0359 | -0.0265 | -0.0189 | -0.008 | -0.0257 | -0.0152 | -0.0167 | 0.0028 | -0.0339 | 0.0273 | 0.0225 | -0.0225 | -0.0275 | -0.0582 | -0.024 | -0.0601 | 0.0185 | -0.0001 | 0.0128 |
| Cn1cnc2c(F)c(Nc3ccc(Br)cc3Cl)c(C(=O)NOCCO)cc21 [Selumetinib] + CCN(CCO)CCCOc1ccc2c(Nc3cc(CC(=O)Nc4cccc(F)c4)[nH]n3)ncnc2c1 [AZD2811] (first compound max 10 µM, 7x7, partner max 1 µM) | -0.0438 | -0.0241 | -0.003 | 0.0328 | 0.0449 | 0.0258 | 0.0153 | 0.0127 | -0.0096 | 0.0202 | 0.11 | -0.0175 | -0.058 | 0.0258 | 0.0191 | 0.0193 | -0.0069 | 0.0722 | -0.0494 | -0.0062 |
| Cn1cnc2c(F)c(Nc3ccc(Br)cc3Cl)c(C(=O)NOCCO)cc21 [Selumetinib] + C[C@@H]1COCCN1C2=NC(=NC(=C2)C3(CC3)[S@](=N)(=O)C)C4=C5C=CNC5=NC=C4 [AZD6738] (first compound max 10 µM, 7x7, partner max 10 µM) | -0.0535 | -0.0471 | -0.0062 | 0.0733 | 0.121 | -0.0147 | -0.0359 | 0.0232 | 0.0302 | -0.0405 | 0.0368 | 0.0043 | -0.039 | 0.0844 | 0.0239 | -0.0328 | -0.0415 | -0.0302 | -0.0453 | 0.0151 |
| CC(=O)Nc1cccc(-n2c(=O)n(C3CC3)c(=O)c3c(Nc4ccc(I)cc4F)n(C)c(=O)c(C)c32)c1 [Trametinib] + Cc1nc(-c2cn3c(n2)-c2ccc(-c4cnn(C(C)(C)C(N)=O)c4)cc2OCC3)n(C(C)C)n1 [Taselisib] (first compound max 1 µM, 7x7, partner max 10 µM) | -0.0681 | 0.0163 | 0.0674 | 0.118 | 0.192 | 0.0597 | 0.06 | 0.329 | 0.116 | 0.0114 | 0.206 | 0.0482 | -0.0243 | 0.135 | 0.0161 | 0.0419 | 0.0404 | 0.192 | -0.0022 | 0.0467 |
| CC1(C)CCC(CN2CCN(c3ccc(C(=O)NS(=O)(=O)c4ccc(NCC5CCOCC5)c([N+](=O)[O-])c4)c(Oc4cnc5[nH]ccc5c4)c3)CC2)=C(c2ccc(Cl)cc2)C1 [Venetoclax] + C1CN(CCC1(C(=O)N[C@@H](CCO)C2=CC=C(C=C2)Cl)N)C3=NC=NC4=C3C=CN4 [Capivasertib] (first compound max 1 µM, 7x7, partner max 3 µM) | 0.0634 | -0.0281 | -0.0395 | -0.035 | -0.0586 | -0.0465 | -0.0252 | -0.0374 | -0.0805 | -0.0059 | -0.0335 | 0.0111 | -0.079 | -0.0627 | -0.0233 | -0.0146 | -0.103 | -0.0438 | -0.109 | -0.0486 |
| CC1(C)CCC(CN2CCN(c3ccc(C(=O)NS(=O)(=O)c4ccc(NCC5CCOCC5)c([N+](=O)[O-])c4)c(Oc4cnc5[nH]ccc5c4)c3)CC2)=C(c2ccc(Cl)cc2)C1 [Venetoclax] + C=CCn1c(=O)c2cnc(Nc3ccc(N4CCN(C)CC4)cc3)nc2n1-c1cccc(C(C)(C)O)n1 [AZD1775] (first compound max 1 µM, partner max 1 µM) | -0.0171 | -0.014 | 0.0315 | -0.0076 | -0.0068 | -0.023 | 0.0513 | -0.0171 | -0.0815 | -0.0676 | -0.0024 | 0.0047 | -0.0283 | -0.0762 | -0.0559 | -0.0575 | -0.0173 | -0.0451 | -0.0136 | 0.0237 |
| CC1(C)CCC(CN2CCN(c3ccc(C(=O)NS(=O)(=O)c4ccc(NCC5CCOCC5)c([N+](=O)[O-])c4)c(Oc4cnc5[nH]ccc5c4)c3)CC2)=C(c2ccc(Cl)cc2)C1 [Venetoclax] + CCN(CCO)CCCOc1ccc2c(Nc3cc(CC(=O)Nc4cccc(F)c4)[nH]n3)ncnc2c1 [AZD2811] (first compound max 1 µM, 7x7, partner max 1 µM) | 0.0663 | -0.0131 | 0.0178 | -0.0005 | -0.0247 | -0.059 | 0.0236 | 0.0287 | -0.0477 | 0.0134 | 0.0418 | 0.0162 | -0.0365 | -0.053 | 0.0107 | -0.0104 | -0.0153 | -0.0214 | -0.0321 | -0.0014 |
| CC1(C)CCC(CN2CCN(c3ccc(C(=O)NS(=O)(=O)c4ccc(NCC5CCOCC5)c([N+](=O)[O-])c4)c(Oc4cnc5[nH]ccc5c4)c3)CC2)=C(c2ccc(Cl)cc2)C1 [Venetoclax] + CN(C)CCCOc1ccc(-c2ccc3ncc4c(c3c2)n(C2CCOCC2)c(=O)n4C)cn1 [AZD0156] (first compound max 1 µM, 7x7, partner max 1 µM) | 0.068 | 0.0697 | 0.0095 | -0.0163 | -0.0193 | -0.0167 | -0.0257 | -0.0022 | -0.0307 | -0.01 | 0.0194 | -0.0194 | -0.0717 | -0.0488 | 0 | -0.0123 | -0.0103 | -0.0351 | -0.051 | -0.0087 |
| CC1(C)CCC(CN2CCN(c3ccc(C(=O)NS(=O)(=O)c4ccc(NCC5CCOCC5)c([N+](=O)[O-])c4)c(Oc4cnc5[nH]ccc5c4)c3)CC2)=C(c2ccc(Cl)cc2)C1 [Venetoclax] + COc1cc(Nc2ncc3c(n2)-c2ccc(Cl)cc2C(c2c(F)cccc2OC)=NC3)ccc1C(=O)O [Alisertib] (first compound max 1 µM, 7x7, partner max 10 µM) | 0.0652 | 0.0421 | -0.0271 | 0.08 | -0.0293 | -0.0086 | 0.0489 | 0.0709 | -0.0026 | -0.0523 | 0.0308 | -0.0217 | -0.0913 | -0.0487 | 0.0107 | 0.028 | -0.0612 | -0.0571 | -0.0323 | 0.0402 |
| CC1(C)CCC(CN2CCN(c3ccc(C(=O)NS(=O)(=O)c4ccc(NCC5CCOCC5)c([N+](=O)[O-])c4)c(Oc4cnc5[nH]ccc5c4)c3)CC2)=C(c2ccc(Cl)cc2)C1 [Venetoclax] + C[C@@H]1COCCN1C2=NC(=NC(=C2)C3(CC3)[S@](=N)(=O)C)C4=C5C=CNC5=NC=C4 [AZD6738] (first compound max 1 µM, 7x7, partner max 10 µM) | 0.0119 | -0.0293 | -0.0731 | -0.0511 | -0.0225 | -0.0844 | -0.0242 | -0.0273 | -0.0023 | -0.0658 | 0.013 | -0.039 | -0.0758 | -0.0454 | -0.0474 | -0.0021 | -0.0433 | -0.0433 | -0.124 | 0.0104 |
| CC1(C)CCC(CN2CCN(c3ccc(C(=O)NS(=O)(=O)c4ccc(NCC5CCOCC5)c([N+](=O)[O-])c4)c(Oc4cnc5[nH]ccc5c4)c3)CC2)=C(c2ccc(Cl)cc2)C1 [Venetoclax] + C[C@@H](Nc1cc(F)cc(F)c1)c1cc(C(=O)N(C)C)cc2c(=O)cc(N3CCOCC3)oc12 [AZD8186] (first compound max 1 µM, 7x7, partner max 3 µM) | 0.0015 | 0.0781 | -0.0233 | -0.0229 | -0.0312 | -0.0402 | -0.0263 | -0.0067 | -0.0647 | -0.0296 | 0.0263 | -0.0334 | -0.0162 | -0.0045 | -0.0344 | 0.0255 | -0.0526 | -0.0222 | -0.0749 | 0.0793 |
